Entries after “also recorded” stand apart in the source; their conditions may differ. Like-named read-outs stand apart in the source and are kept apart here.
How the values were obtained:
[1] = biological target: T1, ERα LBD (Homo sapiens, UniProt P03372); format: binding
T1 sequence (P03372 311-547 limits assumed): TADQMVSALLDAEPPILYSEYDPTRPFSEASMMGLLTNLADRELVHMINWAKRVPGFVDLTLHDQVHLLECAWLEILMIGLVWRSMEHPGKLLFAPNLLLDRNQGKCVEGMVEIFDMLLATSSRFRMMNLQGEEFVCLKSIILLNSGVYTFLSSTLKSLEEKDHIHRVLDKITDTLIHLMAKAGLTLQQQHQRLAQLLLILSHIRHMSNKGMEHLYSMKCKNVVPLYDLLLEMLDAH
Excerpt: The peptide sequences were synthesized with biotin at one end, and coupled to fluorescently distinct microsphere populations (5.6 μm streptavidin-coated latex microsphere particles). Multiple peptides of the same sequence were coupled to microspheres having the same fluorescent label, creating 46 fluorescently distinct microsphere populations (45 peptides plus no-peptide control). The microspheres populations were then multiplexed (combined). Alternatively, the ERα LBD could be coupled to the fluorescent microspheres.
The Estrogen Receptor a Ligand Binding Domain (ERα LBD) was coupled to the fluorophore Alexa 532 (Molecular Probes, Inc., Eugene, Oreg.), which is suitable for use with 532 nm excitation sources. The excitation and emission spectra of Alexa 532 is intermediate between the green-fluorescent Alexa Fluor 488 dye and the orange-fluorescent Alexa Fluor 546 dye.
The resulting binding of peptide to LBD is detected by flow cytometric analysis as is known in the art (see, e.g. WO 01/75443). In the present example, binding of ERα to a microsphere subset was indicated by the acquisition of orange fluorescence, detected using a LX-100 instrument (Luminex Corporation, Austin, Tex.). The above procedure is repeated for each compound to create a library of Binding Profiles.
Binding Profiles for each of the six phage-identified peptides described above were also generated using the same multiplexed assay as described above.

[2] = tested on: human endometrial cells (Ishikawa cell line); test: Ishikawa endometrial cell stimulation assay (intrinsic alkaline phosphatase); format: cell-based; settings: absorbance at 405 nm minus blank; FIG. 13
Experimental: The stimulation of human endometrial cells (Ishikawa cell line) was determined by increases in intrinsic alkaline phosphatase activity. […] The % Emax is defined as 100×(spectrophotometric reading at 405 nm with compound-blank)/(spectrophotometric reading at 405 nm estradiol-blank).

[3] = tested on: MCF-7 breast cancer cells; test: MCF-7 cell proliferation assay ([3H]-thymidine incorporation); format: cell-based, human; settings: CPM, FIG. 11
Experimental: MCF-7 potency=(pEC50 or pIC50)(% cpm max or % cpm min).
Cell proliferation of MCF-7 breast cancer cells was determined by [^3H]-thymidine incorporation. Compounds were tested for their potential to either stimulate MCF-7 proliferation or inhibit proliferation. An EC50 or IC50 was determined for each compound tested.

4-OH tamoxifen
K7P2 peptide binding to ERα LBD over basal [1]: decreased binding of K7P2 over basal and not
RAC3 (671-697) binding to ERα LBD relative to unliganded ERα LBD [1]: decreases
T1P3 peptide binding to ERα LBD over basal [1]: increased binding of T1P3 over basal
binding of ERα LBD to coactivator, coregulator and corepressor peptides compared to basal (no compound) [1]: reduced the amount of peptide binding compared to basal binding; also recorded: decreases or only slightly increases binding

COc1ccc2c(c1)OC(C)(C)[C@@H](c1ccccc1)[C@@H]2c1ccc(OCCN2CCCC2)cc1 [levormeloxifene]
K7P2 peptide binding to ERα LBD over basal ([1]; phage-identified peptide K7P2, 1 μM compound, FIG. 9): not

O=C(c1ccc(OCCN2CCCCC2)cc1)c1c(-c2ccc(O)cc2)sc2cc(O)ccc12 [raloxifene]
stimulation of intrinsic alkaline phosphatase in Ishikawa cells [2]: very low stimulatory activity
MCF-7 cell proliferation with increasing compound concentration [3]: cell proliferation decreased

— patent US20040002119A1, “Method of predicting cell-based assay results using binding profiles” (priority 2002, published 2004)
